Earlier results on one compound are cited in patent US9272011B2, “Pharmaceutical composition for treating urinary incontinence and enuresis” (LABORATEC, S.L., priority 2012, dated 2016).

The test system of this series is enuresis. Conditions: enuresis therapy, literature studies.

For the compound `CN(C)CCCN1c2ccccc2CCc2ccccc21` [Imipramine], the response rate result is given as “approximately 50%”.
